From the supplement of paper PMC11208160 come the findings set out here.

A short description of this data set: recombinant barcode read abundance after kanamycin selection (control-corrected) (log10(CPM+1)); higher = more efficient recombination; sequences stand for … in AGTGCAGAGAAAATCGGCCAGTTTTCTCTGCCTGCAGTCCGCATGCCGT…AGATTTATGCAGCGGACTGCCTTTCTCCCAAAGTGATAAACCGGACAGTATCATGGACCGGTTTTCCCGGTAATCCGTATTTGCAAGGTTGGTTTCACT; site = the 11-nt target. In outline:
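Targets and IS621 bridge RNA target-binding loops were paired in oligos, each with a promoter, a barcode and the J23119-driven first 104 bridge RNA bases. A vector carrying the remaining 73 bp and a T7-inducible recombinase received these by Gibson cloning, and the pool was co-electroporated into E. coli with a donor plasmid. Duplicate plates contained chloramphenicol/ampicillin LB agar (control) or chloramphenicol/ampicillin/kanamycin with 0.1 mM IPTG. Recombination efficiency comes from averaged, control-corrected counts per million of recombinant-junction barcodes, reported as log10(CPM+1).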
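Also: IS621 recombinase and bridge RNA in Escherichia coli cells.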

As to “TGCCAGCCTTGGGTTCTAACCTGTTGCCT (site TGCCAGACTAT)”, the “recombinant barcode read abundance (log10)” value came to 0.114.
As for “TGCCAGCCTTGGGTTCTAACCTGTTGCCT (site TGCCAGCCTAG)”, the figure is 0.0668; as for “TGCCTATCTTGGGTTCTAACCTGTTGCCT (site TACCTATCTAG)”, 0.234.
Next, “TGCCTATCTTGGGTTCTAACCTGTTGCCT (site TCCCTATCTAG)”: 0.0417; “TGCCTATCTTGGGTTCTAACCTGTTGCCT (site TGCCTATCTAG)”: 0.28.
On to “TGCCTATCTTGGGTTCTAACCTGTTGCCT (site TTCCTATCTAG)”, for which the “recombinant barcode read abundance (log10)” value was found to be 0.0491.
As for “TGCGAGTCTTGGGTTCTAACCTGTTGCGT (site TGCGAGTCTAC)”, the figure is 2.87; as for “TGCGAGTCTTGGGTTCTAACCTGTTGCGT (site TTCGAGTCTCC)”, 0.0688; as for “TGCGCAACTTGGGTTCTAACCTGTTGCCT (site TGCGCAACTAG)”, 0.0344.
As for “TGCGCAACTTGGGTTCTAACCTGTTGCCT (site TGCGCCACTAG)”, the figure is 0.256; as for “TGCGCAACTTGGGTTCTAACCTGTTGCCT (site TGCGCGACTAG)”, 0.0979.
As for “TGCGCAACTTGGGTTCTAACCTGTTGCCT (site TGCGCTACTAG)”, the figure is 0.0921.
Take “TGCGCGACTTGGGTTCTAACCTGTTGCCT (site TGCGCAACTAG)”: the “recombinant barcode read abundance (log10)” value came out at 0.0131.
Next, “TGCGCGACTTGGGTTCTAACCTGTTGCCT (site TGCGCCACTAG)”: 0.0885; “TGCGCGACTTGGGTTCTAACCTGTTGCCT (site TGCGCGACTAG)”: 0.032.
As for “TGCGCGACTTGGGTTCTAACCTGTTGCCT (site TGCGCTACTAG)”, the figure is 0.0869; as for “TGCGGAGCTTGGGTTCTAACCTGTTGCCT (site TGCCGACCTAG)”, 0.163.
Next, “TGCGGAGCTTGGGTTCTAACCTGTTGCCT (site TGCGGAGCTAG)”: 0.875; “TGCGGAGCTTGGGTTCTAACCTGTTGCGG (site AACGGAGCTCC)”: 0.348.
With “TGCGGAGCTTGGGTTCTAACCTGTTGCGG (site TGCGGAGCTCC)”, the “recombinant barcode read abundance (log10)” value came to 1.81.
As for “TGCGTGTCTTGGGTTCTAACCTGTTGCTG (site TACGTGTCTTA)”, the figure is 0.0382.
As for “TGCGTGTCTTGGGTTCTAACCTGTTGCTG (site TGCGTGTCTCA)”, the figure is 1.6.
As for “TGCTGGGCTTGGGTTCTAACCTGTTGCTG (site CTTCATTCTAG)”, the figure is 0.225.
On to “TGCTGGGCTTGGGTTCTAACCTGTTGCTG (site TGCTGGGCTCA)”, for which the “recombinant barcode read abundance (log10)” value amounted to 0.32.
As for “TGCTGTCCTTGGGTTCTAACCTGTTGCCT (site TGCTGTACTAG)”, the figure is 0.2.
Next, “TGCTGTCCTTGGGTTCTAACCTGTTGCCT (site TGCTGTCCTAG)”: 0.111.
As for “TGCTGTCCTTGGGTTCTAACCTGTTGCCT (site TGCTGTGCTAG)”, the figure is 0.139.
With “TGCTGTCCTTGGGTTCTAACCTGTTGCCT (site TGCTGTTCTAG)”, the “recombinant barcode read abundance (log10)” value came out at 0.0325.
As for “TGCTGTCCTTGGGTTCTAACCTGTTGCTT (site CAGACGACTTG)”, the figure is 0.127; as for “TGCTGTCCTTGGGTTCTAACCTGTTGCTT (site TGCTGTCCTAA)”, 0.00473.
Next, “TGGAACCCTTGGGTTCTAACCTGTTGCGG (site TGGAACCCTCC)”: 0.706; “TGGAACCCTTGGGTTCTAACCTGTTGCGG (site TGGCACCCTCC)”: 0.0841; “TGGAGAGCTTGGGTTCTAACCTGTTGCAG (site ACCTTGCCTTA)”: 0.0256.
Next, “TGGAGAGCTTGGGTTCTAACCTGTTGCAG (site TGGAGAGCTCT)”: 2.3; “TGGAGCCCTTGGGTTCTAACCTGTTGCAC (site TGGAGCCCTAT)”: 0.0355; “TGGAGCCCTTGGGTTCTAACCTGTTGCAC (site TGGAGCCCTCT)”: 0.114.
Consider “TGGAGCCCTTGGGTTCTAACCTGTTGCAC (site TGGAGCCCTGT)”, for which the “recombinant barcode read abundance (log10)” value was determined as 0.253.
As to “TGGAGCCCTTGGGTTCTAACCTGTTGCAC (site TGGAGCCCTTT)”, the “recombinant barcode read abundance (log10)” value was 0.0674.
Regarding “TGGAGTCCTTGGGTTCTAACCTGTTGCTT (site TGGAGCCCTAA)”, the “recombinant barcode read abundance (log10)” value came out at 0.276.
Next, “TGGAGTCCTTGGGTTCTAACCTGTTGCTT (site TGGAGTCCTAA)”: 0.605.
Take “TGGATCACTTGGGTTCTAACCTGTTGCCT (site TGGAACACTAG)”: the “recombinant barcode read abundance (log10)” value worked out at 0.0491.
Next, “TGGATCACTTGGGTTCTAACCTGTTGCCT (site TGGACCACTAG)”: 0.0457; “TGGATCACTTGGGTTCTAACCTGTTGCCT (site TGGAGCACTAG)”: 0.0771; “TGGATCACTTGGGTTCTAACCTGTTGCCT (site TGGATCACTAG)”: 1.09.
As for “TGGCCCTCTTGGGTTCTAACCTGTTGCTC (site TGGCCCTCTAA)”, the figure is 0.0244.
Next, “TGGCCCTCTTGGGTTCTAACCTGTTGCTC (site TGGCCCTCTCA)”: 0.304; “TGGCCCTCTTGGGTTCTAACCTGTTGCTC (site TGGCCCTCTGA)”: 1.79.
With “TGGCCCTCTTGGGTTCTAACCTGTTGCTC (site TGGCCCTCTTA)”, the “recombinant barcode read abundance (log10)” value is 0.0751.
Next, “TGGCGTACTTGGGTTCTAACCTGTTGCCT (site TGGAGTACTAG)”: 0; “TGGCGTACTTGGGTTCTAACCTGTTGCCT (site TGGCGTACTAG)”: 0.229; “TGGCGTACTTGGGTTCTAACCTGTTGCCT (site TGGGGTACTAG)”: 0.0637.
Next, “TGGCGTACTTGGGTTCTAACCTGTTGCCT (site TGGTGTACTAG)”: 0.149.
On to “TGGCTAGCTTGGGTTCTAACCTGTTGCCT (site TGACTAGCTAG)”, for which the “recombinant barcode read abundance (log10)” value was 0.052.
Next, “TGGCTAGCTTGGGTTCTAACCTGTTGCCT (site TGCCTAGCTAG)”: 0.0442; “TGGCTAGCTTGGGTTCTAACCTGTTGCCT (site TGGCTAGCTAG)”: 0.242.
With “TGGCTAGCTTGGGTTCTAACCTGTTGCCT (site TGTCTAGCTAG)”, the “recombinant barcode read abundance (log10)” value turned out to be 0.0845.
As for “TGGGACCCTTGGGTTCTAACCTGTTGCAT (site TGCGACCCTAA)”, the figure is 0.261.
Take “TGGGACCCTTGGGTTCTAACCTGTTGCAT (site TGGGACCCTAT)”: the “recombinant barcode read abundance (log10)” value is 1.25.
As for “TGGGCGGCTTGGGTTCTAACCTGTTGCCT (site TAGGTGGCTAG)”, the figure is 0.133; as for “TGGGCGGCTTGGGTTCTAACCTGTTGCCT (site TGGGCGGCTAG)”, 0.411.
As for “TGGGGCCCTTGGGTTCTAACCTGTTGCCG (site GCAATTACTAA)”, the figure is 0.09; as for “TGGGGCCCTTGGGTTCTAACCTGTTGCCG (site TGGGGCCCTCG)”, 1.9; as for “TGGGTGACTTGGGTTCTAACCTGTTGCCT (site GCCTGCCCTCA)”, 0.422.
For “TGGGTGACTTGGGTTCTAACCTGTTGCCT (site TGGGTGACTAG)”, the “recombinant barcode read abundance (log10)” value came out at 0.057.
Next, “TGGTAACCTTGGGTTCTAACCTGTTGCCT (site AGGTAACCTAG)”: 0.0194; “TGGTAACCTTGGGTTCTAACCTGTTGCCT (site CGGTAACCTAG)”: 0.172; “TGGTAACCTTGGGTTCTAACCTGTTGCCT (site GGGTAACCTAG)”: 0.148.
As for “TGGTAACCTTGGGTTCTAACCTGTTGCCT (site TGGTAACCTAG)”, the figure is 0.571; as for “TGGTATGCTTGGGTTCTAACCTGTTGCCT (site TGGTATACTAG)”, 0.5.
Next, “TGGTATGCTTGGGTTCTAACCTGTTGCCT (site TGGTATCCTAG)”: 0.0685; “TGGTATGCTTGGGTTCTAACCTGTTGCCT (site TGGTATGCTAG)”: 1.39.
Consider “TGGTATGCTTGGGTTCTAACCTGTTGCCT (site TGGTATTCTAG)”, for which the “recombinant barcode read abundance (log10)” value turned out to be 0.
For “TGGTCTACTTGGGTTCTAACCTGTTGCTT (site TGATCTACTAA)”, the “recombinant barcode read abundance (log10)” value came out at 0.
As for “TGGTCTACTTGGGTTCTAACCTGTTGCTT (site TGCTCTACTAA)”, the figure is 0.0743; as for “TGGTCTACTTGGGTTCTAACCTGTTGCTT (site TGGTCTACTAA)”, 0.154.
Next, “TGGTCTACTTGGGTTCTAACCTGTTGCTT (site TGTTCTACTAA)”: 0.0113; “TGGTTCGCTTGGGTTCTAACCTGTTGCCT (site TGGTACGCTAG)”: 0.0339.
